{"source": "paper PMC10544575", "about": "“Inhibitory mechanism of vortioxetine on CYP450 enzymes in human and rat liver microsomes” (Frontiers in Pharmacology, 2023)", "key": {"CYP2C-1 [1]": {"test_system": "CYP2C-1", "assay": "IC50-shift experiment, CYP2C-1 in RLMs", "type": "in vitro ADME, rat"}, "CYP2D": {"test_system": "CYP2D", "assay": "Reversible inhibition kinetics (Lineweaver-Burk), CYP2D in RLMs", "type": "in vitro ADME, rat", "protocol": "(§1) The components of the incubation system were as follows: 0.20 mg/mL HLMs or 0.20 mg/mL RLMs, 0.1 M Tris-HCl, vortioxetine, and the probe substrates of each enzyme. In the study of Km’s (Michaelis–Menten constant) experiment, midazolam (1, 2, 5, 10, 20, 50 and 100 μM in HLMs and RLMs) corresponded to CYP3A4/3A; bupropion (10, 20, 50, 100, 200, 500, 1,000 and 2000 μM in HLMs; 1, 2, 5, 10, 20, 50, 100 and 200 μM in RLMs) corresponded to CYP2B6/2B; amodiaquine (5, 10, 20, 50, 100 and 200 μM in HLMs; 10, 20, 50, 100, 200, 500 μM in RLMs) corresponded to CYP2C8/CYP2C-1; losartan (1, 2, 5, 10, 20, 50, 100, 200 μM in HLMs; 10, 20, 50, 100, 200, 500 and 1,000 μM in RLMs) corresponded to CYP2C9/CYP2C-2; mephenytoin (20, 50, 100, 200, 500 and 1,000 μM in HLMs; 5, 10, 20, 50, 100, 200, 500 and 1,000 μM in RLMs) corresponded to CYP2C19/CYP2C-3; and dextromethorphan (1, 2, 5, 10, 20, 50 and 100 μM in HLMs and RLMs) corresponded to CYP2D6/CYP2D. […]\n(§2) All experiments results were detected by UPLC-MS/MS, which equipped with a Waters Acquity UPLC system (Milford, MA, United States) and a Waters Xevo TQ-S triple quadrupole tandem mass spectrometer with an electrospray ionization source (Milford, MA, United States). […]\n(§3) IC50 values and enzyme kinetic parameters were calculated by Graphpad Prism 6.0 (GraphPad software Inc., CA, United States). […] Data for each experiment were expressed as mean ± SD (n = 3)."}, "CYP2C19": {"target": "CYP2C19 (Homo sapiens, UniProt P33261)", "sequence (P33261 whole entry)": "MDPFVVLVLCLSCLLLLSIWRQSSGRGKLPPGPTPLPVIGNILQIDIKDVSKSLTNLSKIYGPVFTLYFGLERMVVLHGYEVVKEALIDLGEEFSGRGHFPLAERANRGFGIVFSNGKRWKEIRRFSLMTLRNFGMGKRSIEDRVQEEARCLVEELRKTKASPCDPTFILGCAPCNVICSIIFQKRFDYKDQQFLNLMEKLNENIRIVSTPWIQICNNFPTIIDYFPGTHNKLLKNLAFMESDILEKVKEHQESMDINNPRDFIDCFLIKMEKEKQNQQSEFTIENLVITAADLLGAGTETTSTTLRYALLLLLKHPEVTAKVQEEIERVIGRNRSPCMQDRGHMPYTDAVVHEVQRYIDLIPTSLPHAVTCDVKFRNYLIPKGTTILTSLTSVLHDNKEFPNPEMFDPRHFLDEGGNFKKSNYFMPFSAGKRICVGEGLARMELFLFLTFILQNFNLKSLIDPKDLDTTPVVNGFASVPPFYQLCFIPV", "assay": "IC50 of vortioxetine on CYP2C19 (mephenytoin) in HLMs", "type": "in vitro ADME", "set-up": "0.20 mg/mL HLMs; from tissue; host or cells: human liver microsomes", "protocol": "as §1, §2, §3"}, "CYP2C-2": {"test_system": "CYP2C-2", "assay": "Reversible inhibition kinetics (Lineweaver-Burk), CYP2C-2 in RLMs", "type": "in vitro ADME, rat", "protocol": "as §1, §2, §3"}, "CYP2B": {"test_system": "CYP2B", "assay": "Reversible inhibition kinetics (Lineweaver-Burk), CYP2B in RLMs", "type": "in vitro ADME, rat", "protocol": "as §1, §2, §3"}, "CYP2D6": {"target": "CYP2D6 (Homo sapiens, UniProt P10635)", "sequence (P10635 whole entry)": "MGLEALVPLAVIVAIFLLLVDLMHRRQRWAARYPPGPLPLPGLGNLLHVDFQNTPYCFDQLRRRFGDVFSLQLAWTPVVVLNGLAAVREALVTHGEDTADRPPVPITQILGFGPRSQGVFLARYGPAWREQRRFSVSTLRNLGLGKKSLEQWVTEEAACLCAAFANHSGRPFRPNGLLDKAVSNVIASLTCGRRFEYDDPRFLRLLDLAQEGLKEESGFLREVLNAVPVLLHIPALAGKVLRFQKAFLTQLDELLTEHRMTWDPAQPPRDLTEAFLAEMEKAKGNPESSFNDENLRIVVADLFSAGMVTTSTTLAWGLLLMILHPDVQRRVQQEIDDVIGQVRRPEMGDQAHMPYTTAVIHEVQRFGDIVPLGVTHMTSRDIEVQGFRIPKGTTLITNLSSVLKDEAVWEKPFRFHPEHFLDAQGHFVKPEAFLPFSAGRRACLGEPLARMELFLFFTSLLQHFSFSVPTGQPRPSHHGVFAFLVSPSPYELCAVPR", "assay": "IC50-shift experiment, CYP2D6 in HLMs", "type": "in vitro ADME", "set-up": "0.20 mg/mL HLMs or 0.20 mg/mL RLMs; from tissue; host or cells: human liver microsomes", "conditions": "for IC50: dextromethorphan 10 μM", "protocol": "as §1, with “CYP2D6/CYP2D. After 5.0 min of preincubation in the shaking water bath, the reaction was started with the addition of 1.0 mM NADPH. The incubated temperature at 37°C for 30 min. After the incubation, the enzyme reaction was stopped by cooling at −80°C, and 200 μL of acetonitrile and 20 μL of internal standard diazepam (200 ng/mL) were added for protein precipitation.” for “CYP2D6/CYP2D.”\nIC50-shift was used to investigate whether the drug produced time-dependent inhibition (TDI) of the enzyme. […] During the experiment, the individual substrates midazolam (4 μM), bupropion (40 μM), amodiaquine (3 μM), losartan (8 μM), mephenytoin (90 μM), and dextromethorphan (10 μM) were determined with vortioxetine IC50-shift in HLMs. […]\nas §2, §3"}, "CYP2C-1 [2]": {"test_system": "CYP2C-1", "assay": "IC50 of vortioxetine on CYP2C-1 (amodiaquine) in RLMs", "type": "in vitro ADME", "conditions": "rat, rat liver microsomes, probe amodiaquine", "protocol": "as §1, §2, §3"}}, "note": "Read-outs that look alike come from different tables or passages of the source."}
{"molecule": "Cc1ccc(Sc2ccccc2N2CCNCC2)c(C)c1", "note": "[vortioxetine]", "values": [{"measurement": "IC50", "setting": "CYP2C-1 [1]; 30 min preincubation without NADPH, amodiaquine 20 μM", "result": 19.8, "unit": "µM"}, {"measurement": "IC50 at 30 min", "setting": "CYP2C-1 [1]; rat, rat liver microsomes, probe amodiaquine, 30 min preincubation without NADPH, amodiaquine 20 μM", "result": 18.3, "unit": "µM"}, {"measurement": "IC50 shift at 30 min", "setting": "CYP2C-1 [1]; rat, rat liver microsomes, probe amodiaquine, ratio IC50 (−) NADPH to IC50 (+) NADPH, read-out: IC50 fold shift", "result": 1.98}, {"measurement": "Inhibition type", "setting": "CYP2D; dextromethorphan, Lineweaver-Burk plot", "result": "uncompetitive inhibition"}, {"measurement": "Ki at 30 min", "setting": "CYP2D; rat, rat liver microsomes, probe dextromethorphan", "result": 101, "unit": "µM"}, {"measurement": "IC50", "setting": "CYP2C19; HLMs 0.20 mg/mL, mephenytoin at Km, 37°C, 30 min, read-out: IC50", "result": 2.4, "unit": "µM"}, {"measurement": "IC50", "setting": "CYP2C19; inhibitory effect (strength judged by IC50), HLMs", "result": "1 to 10", "unit": "µM"}, {"measurement": "Inhibition type", "setting": "CYP2C-2; losartan, Lineweaver-Burk plot", "result": "competitive inhibition"}, {"measurement": "Ki at 30 min", "setting": "CYP2C-2; rat, rat liver microsomes, probe losartan", "result": 0.12, "unit": "µM"}, {"measurement": "Inhibition type", "setting": "CYP2B; bupropion, Lineweaver-Burk plot", "result": "competitive inhibition"}, {"measurement": "Ki at 30 min", "setting": "CYP2B; rat, rat liver microsomes, probe bupropion", "result": 2.87, "unit": "µM"}, {"measurement": "IC50", "setting": "CYP2D6; 30 min preincubation with 1.0 mM NADPH", "result": 18.4, "unit": "µM"}, {"measurement": "IC50", "setting": "CYP2D6; 30 min preincubation without NADPH", "result": 19.4, "unit": "µM"}, {"measurement": "IC50 shift at 30 min", "setting": "CYP2D6; human, human liver microsomes, probe dextromethorphan (10 μM), ratio IC50 (−) NADPH to IC50 (+) NADPH, read-out: IC50 fold shift", "result": 1.06}, {"measurement": "IC50 at 30 min", "setting": "CYP2C-1 [2]; RLMs 0.20 mg/mL, amodiaquine at Km, 37°C, 30 min, read-out: IC50", "result": 22.2, "unit": "µM"}, {"measurement": "IC50 at 30 min", "setting": "CYP2C-1 [2]; inhibitory effect (strength judged by IC50), RLMs", "result": "> 10", "unit": "µM"}]}
